Data on one molecule can be found in US11696924B2, “Combination therapy using PDK1 and PI3K inhibitors” (MEMORIAL SLOAN-KETTERING CANCER CENTER, priority 2015, dated 2023).

“Also recorded” adds a separate entry of the source.

One assay relates to pNDRG1 (T346). As to the kind of experiment: Western blot of NDRG1 phosphorylation (T346). Particulars: 4 h. The class given is cell-based. On the procedure: A) SGK1 mRNA levels in breast cancer cell lines sensitive or resistant to BYL719 (n=27). B) SGK1 mRNA levels in PIK3CA-mutant breast cancer cell lines sensitive or resistant to BYL719. C) Western blot of SGK1, SGK2, SGK3 and phosphorylated NDRG1 in a panel of PIK3CA—mutant breast cancer cell lines sensitive or resistant to BYL719. D) Western blot for NDRG1 and phosphorylated NDRG1 (T346) in BYL719-sensitive and -resistant breast cancer cell lines treated with BYL719 (1 μM) for 4 h. […] P values are calculated using Student's t-test. Error bars are ±SEM.
A) Dose-response curves from MDA-MB-361 cells transduced with pLenti7.3-LacZ or pLenti7.3-SGK1 (Δ60, S422D) treated with increasing concentrations of BYL719 for 6 days. B) Western blot analysis of LacZ and SGK1 MDA-MB-361 cells treated with BYL719 (1 μM) for 4 h. […] The DFG motif amino acids are indicated (D240, F241, G242). […] Hydrogen bonds are shown as dotted lines. […] L) IHC analysis of tumors from K collected at the end of the experiment. M) Top panel: growth curves of HCC1954 cells stably expressing doxycycline-inducible control (REN) or SGK1 knockdown treated with increasing concentrations of BYL719 for 6 days. Bottom panel: Western blot analysis of GFP-sorted control (REN) and SGK1 shRNA cells treated with BYL719 (1 μM) for 4 h. P values are calculated using Student's t-test. Error bars are ±SEM.
(§1) Then, membranes were probed using specific antibodies.
A general note: Immunoblotting shows a protein as a band on a membrane.

Assay [1] concerns HCC1954 cells. In words: cell viability, MTT assay. The class given is cell-based. Particulars: HCC1954 shPDK1, 6 days. On the procedure: (§2) Cell viability was measures using the MTT assay. Briefly, 5000 cells were seeded in 96 well plates, treated for 6 days, and assayed using 0,25% MTT (Sigma) and 50 mM sodium succinate (Sigma) solutions during 3 h. Formazan crystals were dissolved with DMSO and absorbance was measured at 570 nm of wavelength.
In general terms: Formazan colour is commonly taken as a measure of viable cells.

For a further assay, the system named is JIMT1 cells. As to the kind of experiment: cell viability, MTT assay. It is filed as cell-based. Particulars: JIMT1 shPDK1, 6 days. On the procedure:
as §2

Another assay deals with pAKT (S473, T308). In words: Western blot of AKT phosphorylation. The class given is cell-based.
A further assay deals with mTORC1. As to the kind of experiment: Western blot of mTORC1 signaling (pS6K, pS6, p4EBP1). The class given is cell-based.
Assay [2] relates to HCC1954 cells. In words: apoptosis: PARP cleavage and caspase 3/7 activity. The settings on record: HCC1954 shPDK1, BYL719 1 μM, long term. The class given is cell-based.
Excerpt: For Caspase 3/7 activity, the Caspase-Glo® 3/7 Assay kit from Promega was used following manufacturer's instructions. The caspase inhibitor zVAD-fmk was used to inhibit apoptosis in cells and was also obtained from Promega.
as §1

In a further assay the test system is HCC1954 xenografts. As to the kind of experiment: HCC1954 in vivo xenograft. The arrangement: species or system mice. On the procedure:
Animals were maintained and treated in accordance with Institutional Guidelines of Memorial Sloan Kettering Cancer Center (Protocol number 12-10-019). 5×10^6 cells in 1:1 PBS/Matrigel (Corning) were injected subcutaneously into six-week-old female athymic Foxn1^nu nude mice.
When tumors reached a volume of ˜150 mm^3 mice were randomized, treated, and tumors were measured twice a week during a month. At least 10 tumors per group were used in all the studies. […] Tumors were harvested at the end of the experiment three hours after the last dosage, fixed in 4% formaldehyde in PBS, and paraffin-embedded. […] Primary staining was followed by 60 minutes incubation with biotinylated goat anti-rabbit IgG (Vector labs) 1:200. Blocker D, Streptavidin-HRP and DAB detection kit (Ventana Medical Systems) were used according to the manufacturer instructions.

The next assay concerns FOXO3. In words: FOXO-dependent transcription (microarray, RT-PCR, immunofluorescence, luciferase reporter, ChIP-qPCR). It is filed as cell-based. Particulars: HCC1954 and JIMT1, 1 μM, 4 h, vs DMSO.
Another assay has as its system SGK1. In words: kinase activity and phosphorylation of immunoprecipitated endogenous SGK1. The settings on record: HCC1954, 4 hr, Crosstide substrate. It is filed as cell-based. As for the experimental part: (§3) In vitro kinase activity of endogenous SGK1 and AKT was assayed by measuring [γ-32P] ATP incorporation into Crosstide substrate peptide [[…]] […] SGK1 and AKT were immunoprecipitated from HCC1954 cell line 4 hr after treatment. Immunoprecipitates were washed once with lysis buffer containing 500 mM NaCl, once with lysis buffer, and twice with Buffer A (50 mM Tris pH 7.5, 0.1 mM EGTA). Reactions were carried out in 40 μL total volume containing 0.1 mM [γ-32P] ATP (400-1000 cpm/pmol), 10 mM magnesium acetate, and 30 μM Crosstide peptide. Reactions were terminated by adding 10 μL […] EDTA. 40 μL of the reaction mix was spotted on P81 paper, which was immediately immersed into 50 mM ortophosphoric acid and washed several times. Papers were rinsed in acetone and air dried. Radioactivity was quantified by Cerenkov counting. One unit of enzyme activity was defined as the amount of enzyme that catalyzes incorporation of 1 nmol of [γ-32P] ATP into the substrate over one minute.

The subject of a further assay is AKT. In words: kinase activity of immunoprecipitated endogenous AKT. It is filed as cell-based. Particulars: HCC1954, 4 hr, Crosstide substrate. As for the experimental part: as §3

Experimental for FOXO3: B) Enrichment plot for the FOXO3 signature in HCC1954 cells. C) Heat map showing changes in previously described FOXO3 targets.
G) Luciferase reporter assay in HCC1954 cells stably transduced with the FOXO consensus motif reporter construct treated as indicated for 12 h (RLU, Relative light units). H) ChIP-qPCR assay of FOXO3A binding at TNFSF10A and IRS2 promoters in HCC1954 cells treated as indicated in F. P values are calculated using Student's t-test. Error bars are ±SEM.
RNA was isolated from cells using the QIAGEN RNeasy kit. For microarray analysis, biotinylated cRNA was prepared according to the standard Illumina protocol. After fragmentation, cRNA was hybridized with Illumina GX HT12 Human Array. Slides were washed and stained in the Illumina instrument following manufactured protocol. Slides were scanned using Illumina Bead Array Reader. Data were analyzed using GenomeStudio software. No normalization and background correction are performed first, then quantile normalization and background correction are done.
For mRNA expression analysis, cDNA was prepared using the Bio-Rad cDNA synthesis kit. cDNA was amplified by quantitative PCR using SYBR Select Master Mix (Applied Biosystems) in the ViiA 7 Real-Time PCR system. All reactions were carried out in triplicate.
Lysed cells were sonicated on ice to yield 200-800 bp DNA fragments. […]
Excerpt for mTORC1: (§4) For western blot analysis proteins were extracted in RIPA buffer supplemented with protease and phosphatase inhibitors (Roche). Protein lysates were separated using SDS-PAGE gels and transferred to a PVDF membrane. Then, membranes were probed using specific antibodies. PDK1, pAKT (S473), pAKT (T308), pS6K (T389), pS6 (S240/4), pS6 (235/6), p4EBP1 (S65), PARP, Actin, pRSK (S227), cleaved Caspase 3, pFOXO1/3 (T24/T32), SGK1, SGK2, SGK3, pNDRG1 (T346), NDRG1, Flag, HA, and phospho-RXRXX(S/T) (SEQ ID NO: 1) were from Cell Signaling Technology (CST).
Excerpt for pAKT (S473, T308): as §4

Turning to `Cc1nc(NC(=O)N2CCC[C@H]2C(N)=O)sc1-c1ccnc(C(C)(C)C(F)(F)F)c1` [BYL719], the “NDRG1 phosphorylation (T346)” value is “maintain NDRG1 phosphorylation” in the assay with pNDRG1 (T346) (BYL719-resistant cell lines) and “decreased NDRG1 phosphorylation at T346” in the assay with pNDRG1 (T346) (BYL719-sensitive cell lines, 1 μM). Moreover, the “cell viability in PDK1 knockdown cells” value with HCC1954 cells [1] and in the assay with JIMT1 cells was “decrease cell viability” throughout. Also, in the assay with pAKT (S473, T308) (BYL719-resistant cells (HCC1954, JIMT1), 1 μM, 4 h), the “AKT phosphorylation / activity” value was “reduced AKT phosphorylation (S473 and T308); also recorded: effectively suppressed AKT activity”. The “pAKT (S473) levels fully decreased” value in the assay on pAKT (S473, T308) (CAL-148 and CAL-51 cells, 1 μM, 4 h) is on record as “fully decreases pAKT levels”. Moreover, in the assay with pAKT (S473, T308) (HCT116 PDPK1+/+ and PDPK1−/− cells), the AKT phosphorylation result is listed as “decreases AKT phosphorylation”. For the same molecule, the mTORC1 signaling result with mTORC1 (BYL719-resistant cells (HCC1954, JIMT1), 4 h, BYL719 1 μM, GSK2334470 1 μM, SGK1-inh 10 μM) is reported as “not downstream mTORC1 targets; also recorded: not mTORC1 signaling”; in the assay with mTORC1 (HCT116 PDPK1−/− cells), “inhibits mTORC1”; with mTORC1 (HCT116 parental cells) it was “does not decrease mTORC1 signaling”; in the assay with mTORC1 (MDA-MB-361 cells overexpressing SGK1, 1 μM, 4 h), “maintained mTORC1 signaling”. Moreover, the “phosphorylation of mTORC1 downstream targets in PDK1 knockdown cells” value in the assay with mTORC1 (HCC1954 and JIMT1 shPDK1, BYL719 1 μM, 4 h) was “decreased the phosphorylation of the mTORC1 downstream targets”. Also, the “AKT phosphorylation and mTORC1 signaling” value with mTORC1 (MDA-MB-361 parental cells, 1 μM, 4 h) was “decreased both AKT phosphorylation and mTORC1 signaling”. Also, the “apoptosis markers in PDK1 knockdown cells” value in the assay with HCC1954 cells [2] was “induced PARP cleavage (FIG. 2C) and increased caspase 3/7 activity”. For the same molecule, the “S6 phosphorylation (S240/4) and 4EBP1 (T37/46) in tumors, IHC” value in the assay with HCC1954 xenografts (HCC1954 shGFP vs shPDK1 xenografts) is “inhibited only in shPDK1 xenografts”. The tumor growth result is “modest delay in tumor growth” with HCC1954 xenografts (HCC1954 shGFP xenografts); “durable tumor shrinkage” in the assay with HCC1954 xenografts (HCC1954 shPDK1 xenografts); “some antitumor activity” with HCC1954 xenografts (HCC1954 xenografts, BYL719 25 mg/kg daily p.o., GSK2334470 100 mg/kg i.p. 3 times/week, SGK1-inh 50 mg/kg daily p.o.). The “pAKT (S473) in tumors, IHC” value in the assay on HCC1954 xenografts (tumors collected at the end of the experiment) is “effectively suppressed AKT phosphorylation (S473); also recorded: sufficient to suppress pAKT”. The “changes in gene expression / transcriptomic profile” value in the assay on FOXO3 was “modest”. Besides, the “endogenous SGK1 kinase activity” value in the assay with SGK1 is given as “remains active”. The “endogenous AKT kinase activity” value in the assay on AKT is listed as “completely abrogated”.
